In US5910479A, “Method for the treatment of Streptococcus pneumoniae infection” (priority 1996, dated 1999):
Converted amounts (≈) assume the structure as drawn.

What was measured:
S. pneumoniae = settings: strain of S. pneumoniae used; reported by Goldstein et al.; cited from earlier work
[1] = system: Streptococcus pneumoniae Felton; assay: Mouse i.p. infection model (septicemia), survival; format: in vivo; settings: mice; for Survivors (%) / Survivors/total: twice
Procedure: Mouse i.p. infection model. Staphylococcus aureus Smith was grown in veal infusion broth and each mouse was infected intraperitoneally with 10^6 colony-forming units (CFU), diluted in broth containing 5% (w/v) Difco bacteriological mucin. Streptococcus pneumoniae Felton strain was grown in Difco Brain Heart Infusion broth (BHI) and each mouse was infected intraperitoneally with 10^3 CFU, diluted in BHI. Mice were divided into groups of 5. […] Other groups of mice received different dosages of nisin. Nisin was administered either intravenously (via the tail vein in. 0.1 ml of 5% dextrose for injection) or subcutaneously (in 0.2 ml). Two injections were given to each mouse, the first within 10 minutes after infection and the second after 5 hours. […] Different dosages of vancomycin or penicillin were administered i.v. in 0.1 ml of 5% glucose for injection.

Row | Compound | MIC (S. pneumoniae) [µg/mL] | Efficacy compared with the other agents (in words) ([1]; i.v.) | Survivors (%) ([1]; i.v., 0.5 mg/kg/dose) | Survivors/total ([1]; i.v., 0.5 mg/kg/dose) | Survivors (%) ([1]; i.v., 1 mg/kg/dose) | Survivors/total ([1]; i.v., 1 mg/kg/dose) | Survivors (%) ([1]; i.v., 2 mg/kg/dose) | Survivors/total ([1]; i.v., 2 mg/kg/dose) | Survivors (%) ([1]; i.v., 4 mg/kg/dose) | Survivors/total ([1]; i.v., 4 mg/kg/dose) | Survivors (%) ([1]; i.v., 8 mg/kg/dose) | Survivors/total ([1]; i.v., 8 mg/kg/dose) | Survivors (%) ([1]; i.v., 16 mg/kg/dose) | Survivors/total ([1]; i.v., 16 mg/kg/dose) | Survivors (%) ([1]; i.v., 32 mg/kg/dose) | Survivors/total ([1]; i.v., 32 mg/kg/dose) | Survivors (%) ([1]; s.c., 2 mg/kg/dose) | Survivors/total ([1]; s.c., 2 mg/kg/dose) | Survivors (%) ([1]; s.c., 4 mg/kg/dose) | Survivors/total ([1]; s.c., 4 mg/kg/dose)
1 | CC1(C)S[C@@H]2[C@H](NC(=O)Cc3ccccc3)C(=O)N2[C@H]1C(=O)O [penicillin] | 0.016 (≈ 0.0478 µM) | less efficacious than nisin | 0 | 0/5 | 20 | 1/5 | 20 | 1/5 | 60 | 3/5 | 20 | 1/5 | 80 | 4/5 | – | – | – | – | – | –
2 | CN[C@H](CC(C)C)C(=O)N[C@H]1C(=O)N[C@@H](CC(N)=O)C(=O)N[C@H]2C(=O)N[C@H]3C(=O)N[C@H](C(=O)N[C@H](C(=O)O)c4cc(O)cc(O)c4-c4cc3ccc4O)[C@H](O)c3ccc(c(Cl)c3)Oc3cc2cc(c3O[C@@H]2O[C@H](CO)[C@@H](O)[C@H](O)[C@H]2O[C@H]2C[C@](C)(N)[C@H](O)[C@H](C)O2)Oc2ccc(cc2Cl)[C@H]1O [vancomycin] | – | less efficacious than nisin | – | – | 40 | 2/5 | 60 | 3/5 | 80 | 4/5 | 100 | 5/5 | 100 | 5/5 | 100 | 5/5 | 60 | 3/5 | 60 | 3/5
